Measurements from ChEMBL document CHEMBL1132007, “The synthesis and biological evaluation of non-peptidic matrix metalloproteinase inhibitors” (Bioorg Med Chem Lett, 1999).

Experiments:
[1] = molecular target: T1, Interstitial collagenase (Homo sapiens, UniProt P03956)
T1 sequence (P03956 whole entry): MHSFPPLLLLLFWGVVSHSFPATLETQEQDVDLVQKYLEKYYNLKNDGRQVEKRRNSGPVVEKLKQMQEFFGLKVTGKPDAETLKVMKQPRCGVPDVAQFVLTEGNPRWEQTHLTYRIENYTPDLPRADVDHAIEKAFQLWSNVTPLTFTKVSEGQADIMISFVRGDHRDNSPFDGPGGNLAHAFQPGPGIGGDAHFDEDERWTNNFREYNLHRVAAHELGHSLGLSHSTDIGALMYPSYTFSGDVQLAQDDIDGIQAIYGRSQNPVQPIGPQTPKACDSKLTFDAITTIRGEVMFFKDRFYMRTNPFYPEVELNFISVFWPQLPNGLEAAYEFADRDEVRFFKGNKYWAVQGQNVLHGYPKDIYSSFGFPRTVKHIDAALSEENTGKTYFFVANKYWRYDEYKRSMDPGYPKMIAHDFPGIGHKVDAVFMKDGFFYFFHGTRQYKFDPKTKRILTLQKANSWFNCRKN

[2] = in vivo; conditions: rat, po
[3] = organism: Rattus norvegicus; conditions: in vivo, po
[4] = molecular target: Neutrophil collagenase (Homo sapiens, UniProt P22894)
Chain of Neutrophil collagenase (P22894 whole entry): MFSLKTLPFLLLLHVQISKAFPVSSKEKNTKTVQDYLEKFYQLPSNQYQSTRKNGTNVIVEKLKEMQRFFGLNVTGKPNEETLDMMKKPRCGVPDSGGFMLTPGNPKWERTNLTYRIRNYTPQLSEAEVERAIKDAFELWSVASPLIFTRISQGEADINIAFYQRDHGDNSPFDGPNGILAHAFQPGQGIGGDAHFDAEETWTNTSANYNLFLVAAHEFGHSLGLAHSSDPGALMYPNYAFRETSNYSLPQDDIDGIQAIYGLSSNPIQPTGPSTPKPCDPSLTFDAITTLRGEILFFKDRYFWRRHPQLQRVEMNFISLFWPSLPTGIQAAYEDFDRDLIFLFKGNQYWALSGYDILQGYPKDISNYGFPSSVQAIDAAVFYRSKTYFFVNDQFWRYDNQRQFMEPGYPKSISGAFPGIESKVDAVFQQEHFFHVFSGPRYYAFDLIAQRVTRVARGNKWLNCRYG

[5] = molecular target: Stromelysin-1 (Homo sapiens) (UniProt P08254)
Chain of Stromelysin-1 (Homo sapiens) (P08254 whole entry, looked up): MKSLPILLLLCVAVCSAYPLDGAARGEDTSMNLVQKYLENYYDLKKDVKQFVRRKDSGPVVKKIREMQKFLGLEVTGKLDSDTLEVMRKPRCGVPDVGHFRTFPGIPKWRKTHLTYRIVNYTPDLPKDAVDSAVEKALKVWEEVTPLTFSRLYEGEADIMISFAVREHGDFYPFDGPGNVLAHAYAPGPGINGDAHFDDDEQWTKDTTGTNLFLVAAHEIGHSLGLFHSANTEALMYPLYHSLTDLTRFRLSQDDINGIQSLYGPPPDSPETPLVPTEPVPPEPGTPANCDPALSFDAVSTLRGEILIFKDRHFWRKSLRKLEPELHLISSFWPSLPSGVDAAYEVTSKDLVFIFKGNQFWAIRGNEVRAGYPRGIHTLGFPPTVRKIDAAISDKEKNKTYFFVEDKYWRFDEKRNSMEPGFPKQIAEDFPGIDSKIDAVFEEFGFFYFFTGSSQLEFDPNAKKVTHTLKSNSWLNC

IC50 [1] | SMILES | other results
9 nM | CN(C[C@H](C(=O)NO)[C@@H](CC1CCCC1)C(=O)N1CCCCC1)S(=O)(=O)c1ccc(Cl)cc1 | 
10 nM | CS(=O)(=O)N(C[C@H](C(=O)NO)[C@@H](CC1CCCC1)C(=O)N1CCCCC1)C1CC1 | 
10 nM | COc1ccc(S(=O)(=O)N(C)C[C@H](C(=O)NO)[C@@H](CC2CCCC2)C(=O)N2CCOCC2)cc1 | 
6 nM | CN(C[C@H](C(=O)NO)[C@@H](CC1CCCC1)C(=O)N1CCCCC1)S(=O)(=O)c1cccc2ccccc12 | 

Further lines, the compound ahead of its results:

SMILES | IC50 [1] | other results
CN(C[C@H](C(=O)NO)[C@@H](CC1CCCC1)C(=O)N1CCCCC1)S(C)(=O)=O |  | Cmax at 0.5 h [2]: 172 ng/mL; AUC [3]: 662 ng·h/mL
CC(C)C[C@@H](C(=O)N1CCOCC1)[C@H](CN1C(=O)c2ccccc2C1=O)C(=O)NO | 20 nM | IC50 [4]: 600 nM
CC(C)C[C@@H](C(=O)N1CCCCC1)[C@H](CN(C)S(C)(=O)=O)C(=O)NO | 60 nM | 
CC(C)C[C@@H](C(=O)N(C)C)[C@H](CN(C)S(C)(=O)=O)C(=O)NO | 1000 nM | 
CN(C[C@H](C(=O)NO)[C@@H](CC1CCCC1)C(=O)N1CCOCC1)S(C)(=O)=O | 5 nM | 
CC(C)C[C@@H](C(=O)N1CCCCC1)[C@H](O)C(=O)NO | 800 nM | IC60 [5]: 100000 nM; IC50 [4]: 1000 nM
